Measurements reported in US11731972B2, “Spiro compounds as glycosidase inhibitors” (Asceneuron SA, priority 2018, dated 2023).
pIC50: −log10 of the molar value.

target: His-Tagged hOGA (human O-GlcNAcase) (Homo sapiens (Human), UniProt O60502); assay: Human O-GlcNAcase enzyme inhibition assay (Example B01); type: biochemical; details: OGA enzyme inhibition assay; FL-GlcNAc substrate, 60 min, room temperature, pH 6.5
Protocol: Example B01: Human O-GlcNAcase Enzyme Inhibition Assay
5 μl of the appropriate concentration of a solution of inhibitor in McIlvaine's Buffer (pH 6.5) in 2% DMSO (for a dose response curve calculation) is added into each well of a 384-well plate (Greiner, 781900). Then, 20 nM of His-Tagged hOGA and 10 μM of FL-GlcNAc (Fluorescein mono-beta-D-(2-deoxy-2-N-acetyl) glucopyranoside; Marker Gene Technologies Inc, M1485) were added to the 384-well plate for a final volume of 20 μl. After incubation for 60 min at room temperature, the reaction was terminated by the addition of 10 μL of stop buffer (200 mM glycine, pH 10.75). The level of fluorescence (λexc 485 nm; (λemm 520 nm) was read on a PHERAstar machine. The amount of fluorescence measured was plotted against the concentration of inhibitor to produce a sigmoidal dose response curve to calculate an IC50. All individual data was corrected by subtraction of the background (Thiamet 3 uM=100% inhibition) whilst 0.5% DMSO was considered as the control value (no inhibition).

Sequence of His-Tagged hOGA (human O-GlcNAcase) (O60502 whole entry): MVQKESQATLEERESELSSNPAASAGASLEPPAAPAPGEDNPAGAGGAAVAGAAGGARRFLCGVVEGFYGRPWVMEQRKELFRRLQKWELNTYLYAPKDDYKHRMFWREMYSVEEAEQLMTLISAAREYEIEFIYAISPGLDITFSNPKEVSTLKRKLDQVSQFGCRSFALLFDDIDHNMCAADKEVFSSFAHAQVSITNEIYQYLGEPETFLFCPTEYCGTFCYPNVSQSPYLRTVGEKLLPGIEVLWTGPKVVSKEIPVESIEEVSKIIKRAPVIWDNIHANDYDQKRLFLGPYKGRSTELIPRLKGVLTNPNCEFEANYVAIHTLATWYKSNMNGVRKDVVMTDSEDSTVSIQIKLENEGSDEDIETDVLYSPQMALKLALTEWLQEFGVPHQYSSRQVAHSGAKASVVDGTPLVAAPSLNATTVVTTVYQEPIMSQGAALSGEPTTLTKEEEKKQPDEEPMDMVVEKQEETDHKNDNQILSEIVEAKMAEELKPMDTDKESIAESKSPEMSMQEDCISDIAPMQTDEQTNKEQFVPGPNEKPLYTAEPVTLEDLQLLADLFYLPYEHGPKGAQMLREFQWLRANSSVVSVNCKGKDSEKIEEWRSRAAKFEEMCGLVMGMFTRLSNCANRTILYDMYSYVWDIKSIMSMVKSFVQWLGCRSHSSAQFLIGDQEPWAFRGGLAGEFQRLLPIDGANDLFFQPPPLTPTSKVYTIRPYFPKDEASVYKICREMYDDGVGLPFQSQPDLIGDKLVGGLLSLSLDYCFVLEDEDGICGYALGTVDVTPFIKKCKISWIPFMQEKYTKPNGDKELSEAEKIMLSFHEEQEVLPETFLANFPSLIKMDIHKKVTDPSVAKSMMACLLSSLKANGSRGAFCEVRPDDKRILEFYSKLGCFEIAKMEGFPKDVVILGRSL

`CC(c1ccc2scnc2c1)N1CCC2(CC1)CN(c1ccc(C#N)cc1)C(=O)N2` (racemic) [Example 34, 4-(8-(1-(benzo[d]thiazol-5-yl)ethyl)-2-oxo-1,3,8-triazaspiro[4.5]decan-3-yl)benzonitrile] and `CC(c1ccc2scnc2c1)N1CCC2(CC1)CN(Cc1ccc(C#N)cc1)C(=O)N2` (racemic) [Example 32, 4-((8-(1-(benzo[d]thiazol-5-yl)ethyl)-2-oxo-1,3,8-triazaspiro[4.5]decan-3-yl)methyl)benzonitrile] fall in the same range of pIC50: 6.70 to 7.30 for the first, 6.70 to 7.30 for the second.

First: CC(=O)Nc1ncc(CN2CCC3(CC2)NC(=O)N(c2cc(C)nc(C)c2)C3=O)s1 (racemic) [IA2]
Second: CC(=O)Nc1ncc(CN2CCC3(CC2)NC(=O)N(Cc2ccnc(C)c2)C3=O)s1 (racemic) [IA5]
The pIC50 of the first is lower: 6.70 to 7.30 for the first, > 7.30 for the second.

First: CC(c1ccc2scnc2c1)N1CCC2(CC1)CC(=O)N(Cc1ccc(S(C)(=O)=O)cc1)C2 (racemic) [Example 17, 8-(1-(benzo[d]thiazol-5-yl)ethyl)-2-(4-(methylsulfonyl)benzyl)-2,8-diazaspiro[4.5]decan-3-one]
Second: CC(c1ccc2c(c1)OCC2)N1CCC2(CC1)CC(=O)N(Cc1ccc(S(C)(=O)=O)cc1)C2 (racemic) [Example 18, 8-(1-(2,3-dihydrobenzofuran-6-yl)ethyl)-2-(4-(methylsulfonyl)benzyl)-2,8-diazaspiro[4.5]decan-3-one]
The pIC50 of the first is lower: 5.00 to 6.00 for the first, 6.00 to 6.70 for the second.

`CC(c1ccc2scnc2c1)N1CCC2(CC1)CC(=O)N(c1ncccn1)C2` (racemic) [Example 73] and `Cc1cc(N2CC3(CCN(C(C)c4ccc5scnc5c4)CC3)CC2=O)n2nccc2n1` (racemic) [Example 72] fall in the same range of pIC50: 5.00 to 6.00 for the first, 5.00 to 6.00 for the second.

`CC(c1ccc2c(c1)OCC2)N1CCC2(CC1)NC(=O)N(C)C2=O` (racemic) [Example 2, 8-(1-(2,3-dihydrobenzofuran-6-yl)ethyl)-3-methyl-1,3,8-triazaspiro[4.5]decane-2,4-dione] and `CC(c1ccc2scnc2c1)N1CCC2(CC1)NC(=O)N(C)C2=O` (racemic) [Example 1, 8-(1-(benzo[d]thiazol-5-yl)ethyl)-3-methyl-1,3,8-triazaspiro[4.5]decane-2,4-dione] fall in the same range of pIC50: 6.00 to 6.70 for the first, 6.00 to 6.70 for the second.

`CC(c1ccc2scnc2c1)N1CCC2(CC1)NC(=O)N(c1ccc(Cl)cc1)C2=O` (racemic) [Example 65] and `CC(c1ccc2scnc2c1)N1CCC2(CC1)NC(=O)N(c1ccc(F)cc1)C2=O` (racemic) [Example 63] fall in the same range of pIC50: 6.70 to 7.30 for the first, 6.70 to 7.30 for the second.

`CC(c1ccc2scnc2c1)N1CCC2(CC1)CN(c1cccc(S(C)(=O)=O)c1)C(=O)N2` (racemic) [Example 35, 8-(1-(benzo[d]thiazol-5-yl)ethyl)-3-(3-(methylsulfonyl)phenyl)-1,3,8-triazaspiro[4.5]decan-2-one] and `CC(c1ccc2scnc2c1)N1CCC2(CC1)NC(=O)N(c1cccc(S(C)(=O)=O)c1)C2=O` (racemic) [Example 64] fall in the same range of pIC50: 6.70 to 7.30 for the first, 6.70 to 7.30 for the second.

First: CC(c1ccc2scnc2c1)N1CCC2(CC1)CN(c1cncnc1)C(=O)N2 (racemic) [Example 37, 8-(1-(benzo[d]thiazol-5-yl)ethyl)-3-(pyrimidin-5-yl)-1,3,8-triazaspiro[4.5]decan-2-one]
Second: CC(c1ccc2scnc2c1)N1CCC2(CC1)C(=O)Nc1ccccc12 (racemic) [Example 20, 1′-(1-(benzo[d]thiazol-5-yl)ethyl)spiro[indoline-3,4′-piperidin]-2-one]
The pIC50 of the first is higher: 6.70 to 7.30 for the first, 6.00 to 6.70 for the second. The first is the more potent here.

First: Cc1cc(CN2C(=O)NC3(CCN(C(C)c4ccc5scnc5c4)CC3)C2=O)ccn1 (racemic) [Example 67]
Second: COCCN1C(=O)NC2(CCN(C(C)c3ccc4scnc4c3)CC2)C1=O (racemic) [Example 7, 8-(1-(benzo[d]thiazol-5-yl)ethyl)-3-(2-methoxyethyl)-1,3,8-triazaspiro[4.5]decane-2,4-dione]
The pIC50 of the first is higher: 6.70 to 7.30 for the first, 6.00 to 6.70 for the second.

Compared with `CC(c1ccc2c(c1)OCC2)N1CCC2(CC1)C(=O)N(Cc1ccc(C#N)cc1)C(=O)N2Cc1ccc(C#N)cc1` (racemic) [Example 30, 4,4′-((8-(1-(2,3-dihydrobenzofuran-6-yl)ethyl)-2,4-dioxo-1,3,8-triazaspiro[4.5]decane-1,3-diyl)bis(methylene))dibenzonitrile], `CC(c1ccc2c(c1)OCC2)N1CCC2(CC1)NC(=O)N(Cc1ccc(C(F)(F)F)nc1)C2=O` (racemic) [Example 9] is higher in pIC50: 6.00 to 6.70 for the first, 6.70 to 7.30 for the second. The second is the more potent here.

First: Cc1cc(N2CC3(CCN(C(C)c4ccc5c(c4)OCC5)CC3)CC2=O)n2nccc2n1 (racemic) [Example 16, 8-(1-(2,3-dihydrobenzofuran-6-yl)ethyl)-2-(5-methylpyrazolo[1,5-a]pyrimidin-7-yl)-2,8-diazaspiro[4.5]decan-3-one]
Second: CC(c1ccc2scnc2c1)N1CCC2(CCN(c3ccc(C#N)cc3)C2)CC1 (racemic) [Example 28, 4-(8-(1-(benzo[d]thiazol-5-yl)ethyl)-2,8-diazaspiro[4.5]decan-2-yl) benzonitrile]
The pIC50 of the first is lower: 5.00 to 6.00 for the first, 6.00 to 6.70 for the second. The second is the more potent here.

`CC(c1ccc2scnc2c1)N1CCC2(CC1)C(=O)N(Cc1ccc(S(C)(=O)=O)cc1)C(=O)N2C` (racemic) [Example 77] gave a pIC50 of 5.00 to 6.00.
